Read-outs that look alike come from different tables or passages of the source.
Experiments:
[1] = system: 60 cancer cell lines (NCI 60 cancer cell line series); assay: NCI-DTP in vitro cancer screen, sulforhodamine B (SRB) growth inhibition, 48 hour exposure; format: cell-based, human; parameters: key to sensitivity class Ovarian OVCAR-8 CL6005 / sensitivity class Ovarian SK-OV-3 CL6011 / sensitivity class Prostate DU-145 CL11003 / sensitivity class NSCLC NCI-H522 CL1003 / sensitivity class Ovarian IGROV1 CL6010 / sensitivity class Ovarian OVCAR-4 CL6002 / sensitivity class Prostate PC-3(I) CL11001 / sensitivity class Renal A498 CL9013 / sensitivity class Renal SN12C CL9008: sensitivity class: 1 = Low, 2 = Medium, 3 = High
Method in brief: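 Values come from the NCI-DTP screen database: -log GI50, the concentration giving 50% growth inhibition, derived from SRB cell-mass dose-response curves. Each line seeded at its own density, treated day 1 at five ten-fold-spaced doses in duplicate wells, stained after 48 h.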

[2] = system: 60 cancer cell lines (NCI 60 cancer cell line series); conditions: cited from earlier work

COc1cc([C@@H]2c3cc4c(cc3[C@@H](O[C@@H]3O[C@@H]5CO[C@@H](c6cccs6)O[C@H]5[C@H](O)[C@H]3O)[C@H]3COC(=O)[C@H]23)OCO4)cc(OC)c1O [Teniposide]
classification of cell line as Low(1), Medium(2) or High(3) sensitivity to compound ([1]; Breast BT-549 (CL5013)): 2
classification of cell line as Low(1), Medium(2) or High(3) sensitivity to compound ([1]; Breast HS-578T CL5006): 2
classification of cell line as Low(1), Medium(2) or High(3) sensitivity to compound ([1]; Breast MCF7(I) (CL5001)): 3
classification of cell line as Low(1), Medium(2) or High(3) sensitivity to compound ([1]; Breast MCF7/ADRr (CL5002)): 1
classification of cell line as Low(1), Medium(2) or High(3) sensitivity to compound ([1]; Breast MDA-MB-231 CL5005): 2
classification of cell line as Low(1), Medium(2) or High(3) sensitivity to compound ([1]; Breast MDA-MB-435 (CL5011)): 2
classification of cell line as Low(1), Medium(2) or High(3) sensitivity to compound ([1]; Breast MDA-N CL5012): 2
classification of cell line as Low(1), Medium(2) or High(3) sensitivity to compound ([1]; Breast T-47D (CL5014)): 2
classification of cell line as Low(1), Medium(2) or High(3) sensitivity to compound ([1]; CNS SF-268 CL12014): 2
classification of cell line as Low(1), Medium(2) or High(3) sensitivity to compound ([1]; CNS SF-295 CL12015): 2
classification of cell line as Low(1), Medium(2) or High(3) sensitivity to compound ([1]; CNS SF-539 CL12016): 2
classification of cell line as Low(1), Medium(2) or High(3) sensitivity to compound ([1]; CNS SNB-19 (CL12002)): 2
classification of cell line as Low(1), Medium(2) or High(3) sensitivity to compound ([1]; CNS SNB-75(I) CL12005): 2
classification of cell line as Low(1), Medium(2) or High(3) sensitivity to compound ([1]; CNS U251(I) CL12009): 2
classification of cell line as Low(1), Medium(2) or High(3) sensitivity to compound ([1]; Colon COLO-250 CL4010): 2
classification of cell line as Low(1), Medium(2) or High(3) sensitivity to compound ([1]; Colon HCC-2998 (CL4002)): 2
classification of cell line as Low(1), Medium(2) or High(3) sensitivity to compound ([1]; Colon HCT-15 CL4015): 2
classification of cell line as Low(1), Medium(2) or High(3) sensitivity to compound ([1]; Colon HCT-116 (CL4003)): 2
classification of cell line as Low(1), Medium(2) or High(3) sensitivity to compound ([1]; Colon HT29(I) CL4001): 2
classification of cell line as Low(1), Medium(2) or High(3) sensitivity to compound ([1]; Colon KM12 (CL4017)): 2
classification of cell line as Low(1), Medium(2) or High(3) sensitivity to compound ([1]; Colon SW-620 (CL4009)): 2
classification of cell line as Low(1), Medium(2) or High(3) sensitivity to compound ([1]; Leukemia CCRF-CEM(I) (CL7003)): 3
classification of cell line as Low(1), Medium(2) or High(3) sensitivity to compound ([1]; Leukemia HL-60(I) (CL7008)): 3
classification of cell line as Low(1), Medium(2) or High(3) sensitivity to compound ([1]; Leukemia K562(I) CL7005): 2
classification of cell line as Low(1), Medium(2) or High(3) sensitivity to compound ([1]; Leukemia MOLT-4 (CL7006)): 3
classification of cell line as Low(1), Medium(2) or High(3) sensitivity to compound ([1]; Leukemia RPMI-8226(I) (CL7010)): 2
classification of cell line as Low(1), Medium(2) or High(3) sensitivity to compound ([1]; Leukemia SR CL7019): 3
classification of cell line as Low(1), Medium(2) or High(3) sensitivity to compound ([1]; Melanoma LOX IMVI CL10001): 2
classification of cell line as Low(1), Medium(2) or High(3) sensitivity to compound ([1]; Melanoma M14 (CL10014)): 2
classification of cell line as Low(1), Medium(2) or High(3) sensitivity to compound ([1]; Melanoma MALME-3M CL10002): 2
sensitivity class NSCLC NCI-H23(I) CL1001 ([1]; cell line NSCLC NCI-H23(I), CL1001): 2
sensitivity class NSCLC NCI-H332M CL1017 ([1]; cell line NSCLC NCI-H332M, CL1017): 1
sensitivity class NSCLC NCI-H460 CL1021 ([1]; cell line NSCLC NCI-H460, CL1021): 3
sensitivity class NSCLC NCI-H522 CL1003 ([1]; cell line NSCLC NCI-H522, CL1003): 2
sensitivity class Ovarian IGROV1 CL6010 ([1]; cell line Ovarian IGROV1, CL6010): 2
sensitivity class Ovarian OVCAR-3 CL6001 ([1]; cell line Ovarian OVCAR-3, CL6001): 2
sensitivity class Ovarian OVCAR-4 CL6002 ([1]; cell line Ovarian OVCAR-4, CL6002): 1
sensitivity class Ovarian OVCAR-5 CL6003 ([1]; cell line Ovarian OVCAR-5, CL6003): 2
sensitivity class Ovarian OVCAR-8 CL6005 ([1]; cell line Ovarian OVCAR-8, CL6005): 2
sensitivity class Ovarian SK-OV-3 CL6011 ([1]; cell line Ovarian SK-OV-3, CL6011): 2
sensitivity class Prostate DU-145 CL11003 ([1]; cell line Prostate DU-145, CL11003): 2
sensitivity class Prostate PC-3(I) CL11001 ([1]; cell line Prostate PC-3(I), CL11001): 2
sensitivity class Renal 786-O CL9018 ([1]; cell line Renal 786-O, CL9018): 2
sensitivity class Renal A498 CL9013 ([1]; cell line Renal A498, CL9013): 2
sensitivity class Renal ACHN CL9023 ([1]; cell line Renal ACHN, CL9023): 2
sensitivity class Renal CAKI-1 CL9015 ([1]; cell line Renal CAKI-1, CL9015): 3
sensitivity class Renal RXF-393 CL9016 ([1]; cell line Renal RXF-393, CL9016): 2
sensitivity class Renal SN12C CL9008 ([1]; cell line Renal SN12C, CL9008): 2
sensitivity class Renal TK10 CL9024 ([1]; cell line Renal TK10, CL9024): 2
sensitivity class Renal UO-31 CL9004 ([1]; cell line Renal UO-31, CL9004): 1
-Log (GI50) ([2]; Breast BT-549 (CL5013)): 6.2
-Log (GI50) ([2]; Breast HS-578T CL5006): 6.4
-Log (GI50) ([2]; Breast MCF7(I) (CL5001)): 7.4
-Log (GI50) ([2]; Breast MCF7/ADRr (CL5002)): 4.6
-Log (GI50) ([2]; Breast MDA-MB-231 CL5005): 6.0
-Log (GI50) ([2]; Breast MDA-MB-435 (CL5011)): 5.9
-Log (GI50) ([2]; Breast MDA-N CL5012): 6.0
-Log (GI50) ([2]; Breast T-47D (CL5014)): 6.8
-Log (GI50) ([2]; CNS SF-268 CL12014): 6.3
-Log (GI50) ([2]; CNS SF-295 CL12015): 6.8
-Log (GI50) ([2]; CNS SF-539 CL12016): 6.7
-Log (GI50) ([2]; CNS SNB-19 (CL12002)): 6.5
-Log (GI50) ([2]; CNS SNB-75(I) CL12005): 6.3
-Log (GI50) ([2]; CNS U251(I) CL12009): 6.8
-Log (GI50) ([2]; Colon COLO-250 CL4010): 6.3
-Log (GI50) ([2]; Colon HCC-2998 (CL4002)): 6.2
-Log (GI50) ([2]; Colon HCT-15 CL4015): 5.8
-Log (GI50) ([2]; Colon HCT-116 (CL4003)): 6.1
-Log (GI50) ([2]; Colon HT29(I) CL4001): 5.8
-Log (GI50) ([2]; Colon KM12 (CL4017)): 6.1
-Log (GI50) ([2]; Colon SW-620 (CL4009)): 6.6
-Log (GI50) ([2]; Leukemia CCRF-CEM(I) (CL7003)): 7.3
-Log (GI50) ([2]; Leukemia HL-60(I) (CL7008)): 7.3
-Log (GI50) ([2]; Leukemia K562(I) CL7005): 6.1
-Log (GI50) ([2]; Leukemia MOLT-4 (CL7006)): 7.8
-Log (GI50) ([2]; Leukemia RPMI-8226(I) (CL7010)): 6.8
-Log (GI50) ([2]; Leukemia SR CL7019): 7.9
-Log (GI50) ([2]; Melanoma LOX IMVI CL10001): 6.7
-Log (GI50) ([2]; Melanoma M14 (CL10014)): 6.2
-Log (GI50) ([2]; Melanoma MALME-3M CL10002): 6.2
-Log (GI50) ([2]; NCSLC NCI-H522 CL1003): 6.3
-Log (GI50) ([2]; NSCLC NCI-H23(I) CL1001): 6.4
-Log (GI50) ([2]; NSCLC NCI-H332M CL1017): 5.5
-Log (GI50) ([2]; NSCLC NCI-H460 CL1021): 7.8
-Log (GI50) ([2]; Ovarian IGROV1 CL6010): 5.8
-Log (GI50) ([2]; Ovarian OVCAR-3 CL6001): 5.8
-Log (GI50) ([2]; Ovarian OVCAR-4 CL6002): 5.3
-Log (GI50) ([2]; Ovarian OVCAR-5 CL6003): 5.8
-Log (GI50) ([2]; Ovarian OVCAR-8 CL6005): 6.3
-Log (GI50) ([2]; Ovarian SK-OV-3 CL6011): 6.4
-Log (GI50) ([2]; Prostate DU-145 CL11003): 6.5
-Log (GI50) ([2]; Prostate PC-3(I) CL11001): 6.0
-Log (GI50) ([2]; Renal 786-O CL9018): 6.5
-Log (GI50) ([2]; Renal A498 CL9013): 6.4
-Log (GI50) ([2]; Renal ACHN CL9023): 6.8
-Log (GI50) ([2]; Renal CAKI-1 CL9015): 7.1
-Log (GI50) ([2]; Renal RXF-393 CL9016): 6.3
-Log (GI50) ([2]; Renal SN12C CL9008): 6.5
-Log (GI50) ([2]; Renal TK10 CL9024): 5.8
-Log (GI50) ([2]; Renal UO-31 CL9004): 5.4
